Results published in patent US9630922B2, “3-spiro-7-hydroxamic acid tetralins as HDAC inhibitors” (Forma Therapeutics, Inc., priority 2015, dated 2017).

Target: T1, HDAC6 (Homo sapiens, UniProt Q9UBN7)
T1 construct: Full length human recombinant HDAC6 protein was expressed in baculoviral system; made in house; host or cells: baculoviral system
T1 sequence (Q9UBN7 1-1215): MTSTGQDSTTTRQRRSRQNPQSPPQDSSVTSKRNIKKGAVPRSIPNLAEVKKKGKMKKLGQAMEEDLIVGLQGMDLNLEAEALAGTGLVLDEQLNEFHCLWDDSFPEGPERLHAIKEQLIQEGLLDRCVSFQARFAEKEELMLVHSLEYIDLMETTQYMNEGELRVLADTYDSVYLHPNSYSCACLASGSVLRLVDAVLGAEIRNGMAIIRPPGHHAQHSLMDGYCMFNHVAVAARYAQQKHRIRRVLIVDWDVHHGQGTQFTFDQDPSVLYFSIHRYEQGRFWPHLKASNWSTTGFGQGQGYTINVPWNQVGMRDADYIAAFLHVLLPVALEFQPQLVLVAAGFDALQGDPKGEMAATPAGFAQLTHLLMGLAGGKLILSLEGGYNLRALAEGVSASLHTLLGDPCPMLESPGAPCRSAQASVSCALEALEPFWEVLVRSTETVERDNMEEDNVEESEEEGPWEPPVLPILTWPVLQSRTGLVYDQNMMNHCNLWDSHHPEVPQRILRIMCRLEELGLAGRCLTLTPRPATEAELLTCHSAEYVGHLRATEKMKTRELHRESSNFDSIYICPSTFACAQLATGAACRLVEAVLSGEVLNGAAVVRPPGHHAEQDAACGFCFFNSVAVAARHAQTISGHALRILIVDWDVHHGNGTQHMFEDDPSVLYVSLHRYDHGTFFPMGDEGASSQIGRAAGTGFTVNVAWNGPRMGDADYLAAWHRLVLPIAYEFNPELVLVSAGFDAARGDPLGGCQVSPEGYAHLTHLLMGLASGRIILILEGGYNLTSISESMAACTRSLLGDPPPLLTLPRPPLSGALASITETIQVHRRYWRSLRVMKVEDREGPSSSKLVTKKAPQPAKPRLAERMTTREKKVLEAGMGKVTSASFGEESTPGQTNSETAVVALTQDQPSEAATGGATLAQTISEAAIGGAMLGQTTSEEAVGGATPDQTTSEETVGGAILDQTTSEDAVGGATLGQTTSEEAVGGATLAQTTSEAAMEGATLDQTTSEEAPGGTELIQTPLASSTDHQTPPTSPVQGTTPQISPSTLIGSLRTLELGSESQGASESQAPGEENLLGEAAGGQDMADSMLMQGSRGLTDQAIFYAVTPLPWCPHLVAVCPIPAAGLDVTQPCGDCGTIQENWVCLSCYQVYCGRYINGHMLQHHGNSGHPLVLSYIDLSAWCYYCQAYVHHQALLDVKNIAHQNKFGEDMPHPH
Test: In vitro Histone Deacetylase Assay (enzymatic HDAC6 electrophoretic mobility shift assay)
Assay type: biochemical
Settings: full length human recombinant HDAC6, 1 nM enzyme, 2 μM peptide substrate RHKK(Ac)-NH2, 25° C.; read-out: HDAC6 activity range
In short: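 Full-length recombinant human HDAC6 (baculovirus-expressed, 1 nM) was incubated at 25 °C with 2 μM fluorescent RHKK(Ac)-NH2 peptide in HEPES pH 7.5, KCl, BSA, Triton X-100 and 1% DMSO, then SDS-quenched. Substrate and product were separated by microfluidic mobility shift, and IC50 came from 4-parameter fits of 12-point, 3-fold dilution curves.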

SMILES	IC50 [nM]
COCCn1c(CN2CC[C@]3(CCc4cc(C(=O)NO)ccc4C3)C2=O)nc2ccccc21 [Compound I-22, (R)-N-hydroxy-1′-((1-(2-methoxyethyl)-1H-benzo[d]imidazol-2-yl)methyl)-2′-oxo-3,4-dihydro-1H-spiro[naphthalene-2,3′-pyrrolidine]-6-carboxamide]	≤ 100
O=C(NO)c1ccc2c(c1)CCC1(CCN(C(=O)Nc3ccccc3)CC1)O2 [II-7, N6-hydroxy-N1′-phenylspiro[chromane-2,4′-piperidine]-1′,6-dicarboxamide]	100 to 500
COc1ccc(N2CC[C@]3(CCc4cc(C(=O)NO)ccc4C3)C2=O)cc1 [Compound I-124, (R)-N-hydroxy-1′-(4-methoxyphenyl)-2′-oxo-3,4-dihydro-1H-spiro[naphthalene-2,3′-pyrrolidine]-6-carboxamide]	≤ 100
O=C(NO)c1ccc2c(c1)CCC1(CC(=O)N(Cc3ccccc3)C1)C2 (single isomer, unassigned) [Compound I-218]	≤ 100
CCN1CC[C@@]2(CCc3cc(C(=O)NO)ccc3C2)C1=O [Compound I-162, (S)-1′-ethyl-N-hydroxy-2′-oxo-3,4-dihydro-H-spiro[naphthalene-2,3′-pyrrolidine]-6-carboxamide]	≤ 100
CN1CC[C@@]2(CCc3cc(C(=O)NO)ccc3C2)C1=O [Compound I-105, (S)-N-hydroxy-1′-methyl-2′-oxo-3,4-dihydro-1H-spiro[naphthalene-2,3′-pyrrolidine]-6-carboxamide]	≤ 100
CC(C)CN1CC2(CCc3cc(C(=O)NO)ccc3C2)CC1=O (single isomer, unassigned) [Compound I-207]	≤ 100
O=C(NO)c1ccc2c(c1)CC[C@]1(CCCN(C3CC3)C1=O)C2 [Compound I-183, (S)-1′-cyclopropyl-N-hydroxy-2′-oxo-3,4-dihydro-1H-spiro[naphthalene-2,3′-piperidine]-6-carboxamide]	≤ 100
O=C(NO)c1ccc2c(c1)CC[C@@]1(CCN(Cc3ccc(Cl)cc3)C1=O)C2 [Compound I-82, (S)-1′-(4-chlorobenzyl)-N-hydroxy-2′-oxo-3,4-dihydro-1H-spiro[naphthalene-2,3′-pyrrolidine]-6-carboxamide]	≤ 100
O=C(NO)c1ccc2c(c1)CC[C@@]1(CCN(Cc3ccc4nonc4c3)C1=O)C2 [Compound I-70, (S)-1′-(benzo[c][1,2,5]oxadiazol-5-ylmethyl)-N-hydroxy-2′-oxo-3,4-dihydro-1H-spiro[naphthalene-2,3′-pyrrolidine]-6-carboxamide]	≤ 100
O=C(NO)c1ccc2c(c1)CCC1(CCN(c3cccnc3)C1=O)O2 (stereo not drawn) [Compound I-233, N-hydroxy-2′-oxo-1′-(pyridin-3-yl)spiro[chromane-2,3′-pyrrolidine]-6-carboxamide]	100 to 500
COCCCN1CC2(CCc3cc(C(=O)NO)ccc3C2)CC1=O (single isomer, unassigned) [Compound I-222]	≤ 100
COc1ccc(CN2CC[C@@]3(CCc4cc(C(=O)NO)ccc4C3)C2=O)cc1 [Compound I-83, (S)-N-hydroxy-1′-(4-methoxybenzyl)-2′-oxo-3,4-dihydro-1H-spiro[naphthalene-2,3′-pyrrolidine]-6-carboxamide]	≤ 100
O=C(NO)c1ccc2c(c1)CCC1(CC(=O)N(C3CC3)C1)C2 (single isomer, unassigned) [Compound I-209]	≤ 100
CN(C)CCCN1CCC2(CCc3cc(C(=O)NO)ccc3C2)C1=O (stereo not drawn) [Compound I-9, 1′-(3-(dimethylamino)propyl)-N-hydroxy-2′-oxo-3,4-dihydro-1H-spiro[naphthalene-2,3′-pyrrolidine]-6-carboxamide]	100 to 500
O=C(NO)c1ccc2c(c1)CCC1(CCN(CC3CCCCC3)C1=O)C2 (stereo not drawn) [Compound I-7, 1′-(cyclohexylmethyl)-N-hydroxy-2′-oxo-3,4-dihydro-1H-spiro[naphthalene-2,3′-pyrrolidine]-6-carboxamide]	100 to 500
O=C(NO)c1ccc2c(c1)CCC1(CCCNC1=O)C2 (stereo not drawn) [Compound I-177, N-hydroxy-2′-oxo-3,4-dihydro-1H-spiro[naphthalene-2,3′-piperidine]-6-carboxamide]	≤ 100
CC(C)N1CC2(CCc3cc(C(=O)NO)ccc3C2)CC1=O (single isomer, unassigned) [Compound I-208]	≤ 100
O=C(NO)c1ccc2c(c1)CCC1(CCN(C3CCCCC3)CC1)O2 [II-8, 1′-cyclohexyl-N-hydroxyspiro[chromane-2,4′-piperidine]-6-carboxamide]	> 500
COc1ccc(N2CC[C@@]3(CCc4cc(C(=O)NO)ccc4C3)C2=O)cn1 [Compound I-118, (S)-N-hydroxy-1′-(6-methoxypyridin-3-yl)-2′-oxo-3,4-dihydro-1H-spiro[naphthalene-2,3′-pyrrolidine]-6-carboxamide]	≤ 100
CCN1CCCC2(CCc3cc(C(=O)NO)ccc3C2)C1=O (single isomer, unassigned) [Compound I-184]	≤ 100
O=C(NO)c1ccc2c(c1)CC[C@]1(CCN(c3cc(F)ccc3F)C1=O)C2 [Compound I-167, (R)-1′-(2,5-difluorophenyl)-N-hydroxy-2′-oxo-3,4-dihydro-1H-spiro[naphthalene-2,3'-pyrrolidine]-6-carboxamide]	≤ 100
O=C(NO)c1ccc2c(c1)CC[C@]1(CCN(Cc3ccc4ccccc4c3)C1=O)C2 [Compound I-58, (R)-N-hydroxy-1′-(naphthalen-2-ylmethyl)-2′-oxo-3,4-dihydro-1H-spiro[naphthalene-2,3′-pyrrolidine]-6-carboxamide]	≤ 100
O=C(NO)c1ccc2c(c1)CCC1(CCN(c3cccnc3)C1=O)S2(=O)=O (stereo not drawn) [Compound I-240, N-hydroxy-2-oxo-1-(pyridin-3-yl)spiro[pyrrolidine-3,2′-thiochromane]-6′-carboxamide 1′,1′-dioxide]	100 to 500
O=C(NO)c1ccc2c(c1)CCC1(CCCN(CC3CCC3)C1=O)C2 (single isomer, unassigned) [Compound I-186]	≤ 100
Cc1ccncc1N1CC[C@]2(CCc3cc(C(=O)NO)ccc3C2)C1=O [Compound I-136, (R)-N-hydroxy-1′-(4-methylpyridin-3-yl)-2′-oxo-3,4-dihydro-1H-spiro[naphthalene-2,3′-pyrrolidine]-6-carboxamide]	≤ 100
O=C(NO)c1ccc2c(c1)CCC1(CCN(CC3CCOCC3)C1=O)S2(=O)=O (stereo not drawn) [Compound I-241, N-hydroxy-2-oxo-1-((tetrahydro-2H-pyran-4-yl)methyl)spiro[pyrrolidine-3,2′-thiochromane]-6′-carboxamide 1′,1′-dioxide]	> 500
Cn1cc(N2CC[C@@]3(CCc4cc(C(=O)NO)ccc4C3)C2=O)cn1 [Compound I-170, (S)-N-hydroxy-1′-(1-methyl-1H-pyrazol-4-yl)-2′-oxo-3,4-dihydro-1H-spiro[naphthalene-2,3-pyrrolidine]-6-carboxamide]	≤ 100
CC(C)N1CCCC2(CCc3cc(C(=O)NO)ccc3C2)C1=O (single isomer, unassigned) [Compound I-192]	≤ 100
Cn1cc(N2CC[C@]3(CCc4cc(C(=O)NO)ccc4C3)C2=O)cn1 [Compound I-168, (R)-N-hydroxy-1′-(1-methyl-1H-pyrazol-4-yl)-2′-oxo-3,4-dihydro-1H-spiro[naphthalene-2,3′-pyrrolidine]-6-carboxamide]	≤ 100
